Species on record: Rattus norvegicus
Assay: Open TG-GATES - Regimen: Single
Type: toxicity, organism-based, Sprague-Dawley
Set-up: regimen Single, gender Male, age 6 weeks
Settings: in vivo, iv, 3 mg/kg, route intravenous injection, dose level High; for KIDNEY_L / KIDNEY_R / KIDNEY_TOTAL: tissue Kidney; for LIVER: tissue Liver

Sequence: CISPLATIN
- APTT (6 h, tissue Blood): 22 s
- Bas (6 h, tissue Blood): 0%
- Eos (6 h, tissue Blood): 0.8%
- Fbg (6 h, tissue Blood): 280.6 mg/dL
- Hb (6 h, tissue Blood): 12.9 g/dL
- Ht (6 h, tissue Blood): 39.8%
- MCV (6 h, tissue Blood): 64 fL
- Mono (6 h, tissue Blood): 2.8%
- PT (6 h, tissue Blood): 15.3 s
- Plat (6 h, tissue Blood): 123.5 x10_4/uL
- RBC (6 h, tissue Blood): 623.2 x10_4/ul
- Ret (6 h, tissue Blood): 6.2%
- WBC (6 h, tissue Blood): 89 x10_2/uL
- KIDNEY_L (6 h): 0.9 g
- KIDNEY_R (6 h): 0.9 g
- KIDNEY_TOTAL (6 h): 1.9 g
- LIVER (6 h): 9.1 g
- ALP (6 h, tissue Plasma): 1307.8 IU/L
- ALT (6 h, tissue Plasma): 42.6 IU/L
- AST (6 h, tissue Plasma): 81 IU/L
- CRE (6 h, tissue Plasma): 0.2 mg/dL
- DBIL (6 h, tissue Plasma): 0 mg/dL
- GLC (6 h, tissue Plasma): 177.2 mg/dL
- IP (6 h, tissue Plasma): 9.5 mg/dL
- K (6 h, tissue Plasma): 4.7 meq/L
- Na (6 h, tissue Plasma): 139 meq/L
- PL (6 h, tissue Plasma): 127.8 mg/dL
- RALB (6 h, tissue Plasma): 2.9 g/dL
- TBIL (6 h, tissue Plasma): 0 mg/dL
- TC (6 h, tissue Plasma): 75 mg/dL
- TG (6 h, tissue Plasma): 79.2 mg/dL
- TP (6 h, tissue Plasma): 5.3 g/dL
- gamma-GTP (6 h, tissue Plasma): 1.8 IU/L
- TERMINAL_BW (9 h): 213.7 g
- APTT (9 h, tissue Blood): 22.3 s
- Bas (9 h, tissue Blood): 0%
- Eos (9 h, tissue Blood): 0.6%
- Fbg (9 h, tissue Blood): 287.4 mg/dL
- Ht (9 h, tissue Blood): 38.5%
- Lym (9 h, tissue Blood): 79.8%
- MCHC (9 h, tissue Blood): 32.7%
- Mono (9 h, tissue Blood): 1.8%
- PT (9 h, tissue Blood): 15.4 s
- Plat (9 h, tissue Blood): 137.7 x10_4/uL
- RBC (9 h, tissue Blood): 615.8 x10_4/ul
- Ret (9 h, tissue Blood): 5.4%
- WBC (9 h, tissue Blood): 60.5 x10_2/uL
- KIDNEY_L (9 h): 1 g
- KIDNEY_R (9 h): 1 g
- KIDNEY_TOTAL (9 h): 1.9 g
- LIVER (9 h): 8.6 g
- ALP (9 h, tissue Plasma): 1222.8 IU/L
- ALT (9 h, tissue Plasma): 37.8 IU/L
- AST (9 h, tissue Plasma): 73 IU/L
- BUN (9 h, tissue Plasma): 12 mg/dL
- CRE (9 h, tissue Plasma): 0.1 mg/dL
- Ca (9 h, tissue Plasma): 11 mg/dL
- DBIL (9 h, tissue Plasma): 0 mg/dL
- GLC (9 h, tissue Plasma): 178.6 mg/dL
- IP (9 h, tissue Plasma): 9.8 mg/dL
- K (9 h, tissue Plasma): 4.4 meq/L
- LDH (9 h, tissue Plasma): 133.4 IU/L
- Na (9 h, tissue Plasma): 140.2 meq/L
- PL (9 h, tissue Plasma): 124 mg/dL
- RALB (9 h, tissue Plasma): 3 g/dL
- TBIL (9 h, tissue Plasma): 0.024 mg/dL
- TC (9 h, tissue Plasma): 70.2 mg/dL
- TG (9 h, tissue Plasma): 57 mg/dL
- TP (9 h, tissue Plasma): 5.4 g/dL
- gamma-GTP (9 h, tissue Plasma): 1.8 IU/L
- TERMINAL_BW (24 h): 220 g
- APTT (24 h, tissue Blood): 22.6 s
- Bas (24 h, tissue Blood): 0%
- Eos (24 h, tissue Blood): 0.6%
- Fbg (24 h, tissue Blood): 297.2 mg/dL
- Ht (24 h, tissue Blood): 40.2%
- Lym (24 h, tissue Blood): 87%
- MCH (24 h, tissue Blood): 21 pg
- MCHC (24 h, tissue Blood): 33%
- MCV (24 h, tissue Blood): 63.8 fL
- Mono (24 h, tissue Blood): 2.8%
- Neu (24 h, tissue Blood): 9.4%
- Plat (24 h, tissue Blood): 134.6 x10_4/uL
- RBC (24 h, tissue Blood): 629.2 x10_4/ul
- Ret (24 h, tissue Blood): 3.9%
- WBC (24 h, tissue Blood): 73 x10_2/uL
- KIDNEY_L (24 h): 1 g
- KIDNEY_R (24 h): 1 g
- KIDNEY_TOTAL (24 h): 2 g
- LIVER (24 h): 9.6 g
- ALP (24 h, tissue Plasma): 1429.2 IU/L
- ALT (24 h, tissue Plasma): 39 IU/L
- AST (24 h, tissue Plasma): 72.4 IU/L
- BUN (24 h, tissue Plasma): 16.2 mg/dL
- CRE (24 h, tissue Plasma): 0.2 mg/dL
- DBIL (24 h, tissue Plasma): 0 mg/dL
- GLC (24 h, tissue Plasma): 181 mg/dL
- IP (24 h, tissue Plasma): 8.3 mg/dL
- K (24 h, tissue Plasma): 4.3 meq/L
- Na (24 h, tissue Plasma): 140 meq/L
- PL (24 h, tissue Plasma): 147.2 mg/dL
- RALB (24 h, tissue Plasma): 3.1 g/dL
- TBIL (24 h, tissue Plasma): 0.024 mg/dL
- TC (24 h, tissue Plasma): 89.2 mg/dL
- TG (24 h, tissue Plasma): 51.8 mg/dL
- TP (24 h, tissue Plasma): 5.5 g/dL
- gamma-GTP (24 h, tissue Plasma): 1.8 IU/L

— ChEMBL document CHEMBL3885861, “Open TG-GATES”
